Measurements taken from patent US20220323406A1, “METHODS AND COMPOSITIONS FOR DIFFERENTIATING STEM CELLS” (Massachusetts Institute of Technology, priority 2019, published 2022).

What was measured:
[1] = tested on: ENR+CD organoids (ISC to Paneth cell differentiation); experiment: Primary screen: basal (non-stimulated) lysozyme secretion LYZ.NS, 2.5-D 384-well ENR+CD organoid differentiation; format: cell-based, mouse; settings: primary screen; for Z.LYZ.NS: standard z score
Description: (§1) High-throughput screening.

[2] = tested on: ENR+CD organoids (ISC to Paneth cell differentiation); experiment: Primary screen: CCh-stimulated lysozyme secretion LYZ.S, 2.5-D 384-well ENR+CD organoid differentiation; format: cell-based, mouse; settings: primary screen
Description: as §1

ENR+CD organoids = experiment: Primary screen: ATP (CellTiter-Glo 3D, CTG) cell number/viability, 2.5-D 384-well ENR+CD organoids; settings: primary screen; for Z.CTG: standard z score;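 for all read-outs here: compounds given at plating and again on day 3 over a 6-day differentiation from ENR+CV stem-cell-enriched precursors, ATP measured on day 6, plate median as control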
[3] = dose 0.08 uM, FC relative to plate median
[4] = dose 0.40 uM, FC relative to plate median
[5] = dose 2.00 uM, FC relative to plate median
[6] = dose 10.00 uM, FC relative to plate median
[7] = 1st dose row of the treatment (0.08 uM by row order; dose not reprinted)
[8] = 2nd dose row of the treatment (0.40 uM by row order; dose not reprinted)
[9] = 3rd dose row of the treatment (2.00 uM by row order; dose not reprinted)
[10] = 4th dose row of the treatment (10.00 uM by row order; dose not reprinted)
[11] = dose 0.08 uM, FC vs plate median
[12] = dose 0.40 uM, FC vs plate median
[13] = dose 2.00 uM, FC vs plate median
[14] = dose 10.00 uM, FC vs plate median

COc1ccc(COc2ccc(Cc3cnc(N)nc3N)cc2OC)cc1 [GW2580]
Dose.FC.LYZ.NS (log2 fold change) ([1]; dose 0.08 uM): 0.006
Z.LYZ.NS (standard z score) ([1]; dose 0.08 uM): 0.056
Dose.FC.LYZ.NS (log2 fold change) ([1]; dose 0.40 uM): 0.014
Z.LYZ.NS (standard z score) ([1]; dose 0.40 uM): 0.118
Dose.FC.LYZ.NS (log2 fold change) ([1]; dose 2.00 uM): −0.060
Z.LYZ.NS (standard z score) ([1]; dose 2.00 uM): −0.525
Dose.FC.LYZ.NS (log2 fold change) ([1]; dose 10.00 uM): −0.018
Z.LYZ.NS (standard z score) ([1]; dose 10.00 uM): −0.158
Dose.FC.LYZ.S (log2 fold change) ([2]; dose 0.08 uM): −0.013
Dose.FC.LYZ.S (log2 fold change) ([2]; dose 0.40 uM): 0.020
Dose.FC.LYZ.S (log2 fold change) ([2]; dose 2.00 uM): −0.060
Dose.FC.LYZ.S (log2 fold change) ([2]; dose 10.00 uM): −0.026
Dose.FC.CTG (log2 fold change) (ENR+CD organoids; dose 0.08 uM): −0.042
Z.CTG (standard z score) (ENR+CD organoids; dose 0.08 uM): −0.101
Dose.FC.CTG (log2 fold change) (ENR+CD organoids; dose 0.40 uM): −0.284
Z.CTG (standard z score) (ENR+CD organoids; dose 0.40 uM): −0.678
Dose.FC.CTG (log2 fold change) (ENR+CD organoids; dose 2.00 uM): 0.029
Z.CTG (standard z score) (ENR+CD organoids; dose 2.00 uM): 0.068
Dose.FC.CTG (log2 fold change) (ENR+CD organoids; dose 10.00 uM): −0.038
Z.CTG (standard z score) (ENR+CD organoids; dose 10.00 uM): −0.091

Cl.NC(=O)c1cnc(N[C@@H]2CCCC[C@@H]2N)nc1Nc1cccc(-n2nccn2)c1 [PRT062607 (P505-15, BIIB057) HCl]
Dose.FC.LYZ.NS [1, 3]: 0.004 log2 fold change
Z.LYZ.NS ([1]; dose 0.08 uM): 0.037
Dose.FC.LYZ.NS [1, 4]: 0.022 log2 fold change
Z.LYZ.NS ([1]; dose 0.40 uM): 0.194
Dose.FC.LYZ.NS [1, 5]: −0.032 log2 fold change
Z.LYZ.NS ([1]; dose 2.00 uM): −0.280
Dose.FC.LYZ.NS [1, 6]: −0.211 log2 fold change
Z.LYZ.NS ([1]; dose 10.00 uM): −1.837
Dose.FC.LYZ.S [2, 3]: −0.033 log2 fold change
Dose.FC.LYZ.S [2, 4]: 0.122 log2 fold change
Dose.FC.LYZ.S [2, 5]: −0.123 log2 fold change
Dose.FC.LYZ.S [2, 6]: −0.298 log2 fold change
Dose.FC.CTG (ENR+CD organoids; [3]): −0.092 log2 fold change
Z.CTG (ENR+CD organoids; dose 0.08 uM): −0.219
Dose.FC.CTG (ENR+CD organoids; [4]): 0.080 log2 fold change
Z.CTG (ENR+CD organoids; dose 0.40 uM): 0.191
Dose.FC.CTG (ENR+CD organoids; [5]): −0.075 log2 fold change
Z.CTG (ENR+CD organoids; dose 2.00 uM): −0.179
Dose.FC.CTG (ENR+CD organoids; [6]): −0.330 log2 fold change
Z.CTG (ENR+CD organoids; dose 10.00 uM): −0.788

N#Cc1c(O)c2c(-c3ccc(-c4ccccc4O)cc3)csc2[nH]c1=O [A-769662]
SSMD.LYZ.NS_Rep (strictly standardized mean difference) [1, 7]: 0.286
SSMD.LYZ.NS_Rep (strictly standardized mean difference) [1, 8]: 0.498
SSMD.LYZ.NS_Rep (strictly standardized mean difference) [1, 9]: 0.554
SSMD.LYZ.NS_Rep (strictly standardized mean difference) [1, 10]: 0.068
Dose.FC.LYZ.NS ([1]; dose 0.08 uM): 0.045 log2 fold change
Z.LYZ.NS (standard z score) ([1]; dose 0.08 uM): 0.394
Dose.FC.LYZ.NS ([1]; dose 0.40 uM): 0.069 log2 fold change
Z.LYZ.NS (standard z score) ([1]; dose 0.40 uM): 0.599
Dose.FC.LYZ.NS ([1]; dose 2.00 uM): 0.054 log2 fold change
Z.LYZ.NS (standard z score) ([1]; dose 2.00 uM): 0.473
Dose.FC.LYZ.NS ([1]; dose 10.00 uM): 0.009 log2 fold change
Z.LYZ.NS (standard z score) ([1]; dose 10.00 uM): 0.075
SSMD.LYZ.S_Rep (strictly standardized mean difference) [2, 7]: 0.365
Z.LYZ.S (standard z score) [2, 7]: 0.426
SSMD.LYZ.S_Rep (strictly standardized mean difference) [2, 8]: 0.472
Z.LYZ.S (standard z score) [2, 8]: 0.460
SSMD.LYZ.S_Rep (strictly standardized mean difference) [2, 9]: 0.488
Z.LYZ.S (standard z score) [2, 9]: 1.191
SSMD.LYZ.S_Rep (strictly standardized mean difference) [2, 10]: 0.119
Z.LYZ.S (standard z score) [2, 10]: 0.121
Dose.FC.LYZ.S ([2]; dose 0.08 uM): 0.066 log2 fold change
Dose.FC.LYZ.S ([2]; dose 0.40 uM): 0.071 log2 fold change
Dose.FC.LYZ.S ([2]; dose 2.00 uM): 0.184 log2 fold change
Dose.FC.LYZ.S ([2]; dose 10.00 uM): 0.019 log2 fold change
SSMD.CTG.Rep (strictly standardized mean difference) (ENR+CD organoids; [7]): −0.255
SSMD.CTG.Rep (strictly standardized mean difference) (ENR+CD organoids; [8]): 0.019
SSMD.CTG.Rep (strictly standardized mean difference) (ENR+CD organoids; [9]): −0.312
SSMD.CTG.Rep (strictly standardized mean difference) (ENR+CD organoids; [10]): −0.056
Dose.FC.CTG (ENR+CD organoids; dose 0.08 uM): −0.074 log2 fold change
Z.CTG (standard z score) (ENR+CD organoids; dose 0.08 uM): −0.177
Dose.FC.CTG (ENR+CD organoids; dose 0.40 uM): 0.007 log2 fold change
Z.CTG (standard z score) (ENR+CD organoids; dose 0.40 uM): 0.016
Dose.FC.CTG (ENR+CD organoids; dose 2.00 uM): −0.127 log2 fold change
Z.CTG (standard z score) (ENR+CD organoids; dose 2.00 uM): −0.304
Dose.FC.CTG (ENR+CD organoids; dose 10.00 uM): −0.015 log2 fold change
Z.CTG (standard z score) (ENR+CD organoids; dose 10.00 uM): −0.036

Oc1cc(O)cc(/C=C/c2ccc(O)c(O)c2)c1 [Piceatannol]
Z.LYZ.NS ([1]; dose 0.08 uM): 0.698
Z.LYZ.NS ([1]; dose 0.40 uM): 0.375
Z.LYZ.NS ([1]; dose 2.00 uM): 0.221
Z.LYZ.NS ([1]; dose 10.00 uM): −0.184
Dose.FC.LYZ.NS [1, 11]: 0.080 log2 fold change
Dose.FC.LYZ.NS [1, 12]: 0.043 log2 fold change
Dose.FC.LYZ.NS [1, 13]: 0.025 log2 fold change
Dose.FC.LYZ.NS [1, 14]: −0.021 log2 fold change
Dose.FC.LYZ.S [2, 11]: 0.094 log2 fold change
Dose.FC.LYZ.S [2, 12]: 0.045 log2 fold change
Dose.FC.LYZ.S [2, 13]: 0.016 log2 fold change
Dose.FC.LYZ.S [2, 14]: −0.104 log2 fold change
Dose.FC.CTG (ENR+CD organoids; [11]): 0.232 log2 fold change
Dose.FC.CTG (ENR+CD organoids; [12]): −0.090 log2 fold change
Dose.FC.CTG (ENR+CD organoids; [13]): 0.074 log2 fold change
Dose.FC.CTG (ENR+CD organoids; [14]): −0.071 log2 fold change

O=C(NNc1nc2cc(F)ccc2n2cccc12)c1cnccn1 [SC144]
Dose.FC.LYZ.NS [1, 3]: 0.067 log2 fold change
Z.LYZ.NS ([1]; dose 0.08 uM): 0.582
Dose.FC.LYZ.NS [1, 4]: −0.013 log2 fold change
Z.LYZ.NS ([1]; dose 0.40 uM): −0.112
Dose.FC.LYZ.NS [1, 5]: −0.025 log2 fold change
Z.LYZ.NS ([1]; dose 2.00 uM): −0.220
Dose.FC.LYZ.NS [1, 6]: −0.156 log2 fold change
Z.LYZ.NS ([1]; dose 10.00 uM): −1.355
Dose.FC.LYZ.S [2, 3]: 0.098 log2 fold change
Dose.FC.LYZ.S [2, 4]: 0.014 log2 fold change
Dose.FC.LYZ.S [2, 5]: −0.131 log2 fold change
Dose.FC.LYZ.S [2, 6]: −0.211 log2 fold change
Dose.FC.CTG (ENR+CD organoids; [3]): 0.160 log2 fold change
Z.CTG (ENR+CD organoids; dose 0.08 uM): 0.381
Dose.FC.CTG (ENR+CD organoids; [4]): 0.129 log2 fold change
Z.CTG (ENR+CD organoids; dose 0.40 uM): 0.309
Dose.FC.CTG (ENR+CD organoids; [5]): −0.257 log2 fold change
Z.CTG (ENR+CD organoids; dose 2.00 uM): −0.613
Dose.FC.CTG (ENR+CD organoids; [6]): −0.885 log2 fold change
Z.CTG (ENR+CD organoids; dose 10.00 uM): −2.113
